From patent US9233161B2, “Compositions and methods for the treatment of neurological conditions” (CELLIX BIO PRIVATE LIMITED, priority 2012, dated 2016) come the findings set out here.

Structures are written as SMILES.

The subject of the experiment is Rat Model of Neuropathic Pain. In words: Mechanic pain test (Randall-Sellitio method) in a rat model of neuropathic pain (loose ligation of the right sciatic nerve). Type of experiment: in vivo. Conditions: i.p., 40, 60 mg/kg equivalent of milnacipran, 15 days after surgery, tested for 2 h every 30 min, compared with milnacipran. The procedure:
The Effect of Milnacipran and Formula I (1-1) on Nociception in a Rat Model of Neuropathic Pain
After the preoperative pain thresholds of rats determined by mechanic pain test (Randall-Sellitio method), peripheric neuropathy was formed by loose ligating the right sciatic nevre. An identical procedure was performed without ligating on the left side (sham-operation). 15 days after surgical procedure postoperative pain thresholds were determined and saline and drugs were administered via intraperitoneal (i.p) route. Drugs groups were planned as milnacipran (40, 60, 80 mg/kg), Formula I (1-1) (20, 40, 60 mg/kg equivalent of milnacipran), After saline and drug injection, the test was repeated for 2 h in every 30 min. Pain thresholds were given as mean, SEM from % values. Spontaneous locomotor activity was measured by an activity cage and movements were quantified as the total of ambulatory and stereotypic behaviour. Statistical evaluation was made with one way variance analysis (ANOVA) followed by LSD test.

For the compound `CCN(CC)C(=O)[C@]1(c2ccccc2)CC1CNC(=O)CCCC[C@]1(C)CCSS1` (stereo partly shown) [Formula I (1-1)], the “antinociceptive effect (pain thresholds)” value was “more potent antinociceptive effect”.
